Measurements reported in the NIST ThermoML archive (doi:10.1021/je101131x).
Numbers after ± are expanded uncertainties.

Details: Liquid

| vapor or sublimation pressure (323.15 K) | vapor or sublimation pressure (333.15 K) | vapor or sublimation pressure (343.15 K) | vapor or sublimation pressure (353.15 K) | Structure (SMILES) |
| --- | --- | --- | --- | --- |
| 7.567 ± 0.41 kPa | 12.04 ± 0.51 kPa | 18.66 ± 0.67 kPa | 28.2 ± 0.89 kPa | CC(=O)O [acetic acid] |
| 16.09 ± 0.61 kPa | 24.01 ± 0.8 kPa | 34.99 ± 1.1 kPa | 49.92 ± 1.4 kPa | CCCOC(C)=O [propyl ethanoate] |
